This is an account of results in paper PMC6270165, “Synthesis and Biological Evaluation of 3-Benzisoxazolyl-4-indolylmaleimides as Potent, Selective Inhibitors of Glycogen Synthase Kinase-3β” (Molecules, 2013).

Molecules are shown by their SMILES.

Experiment [1] concerns Tau phosphorylation at Ser 396 in SH-SY5Y cells. As to the kind of experiment: Aβ25-35-induced Tau phosphorylation (Ser396) in SH-SY5Y cells, Western blotting. Format: cell-based, human. The settings on record: 100 nM, inhibitors 1 hour, then Aβ25–35 6 hours, Western blot. On the procedure: It has been implicated that GSK-3β is involved in multiple cellular processes, and its ability to hyperphosphorylate Tau protein and induce neurofibrillary tangle was intensively studied. Therefore, the cell-based assay examining Tau phosphorylation at Serine 396 represents a direct functional assay to measure the cellular activity of GSK-3β inhibitors. Compounds 7c, 7f, 7j–l and 7o–q were tested for the ability to reduce Tau phosphorylation at Ser 396 in human neuroblastoma SH-SY5Y cells. LiCl, a well-known inhibitor of GSK-3β [24], was used as a positive control in this assay. […] The Aβ-induced Tau hyperphosphorylation results in neurofibrillary tangle formation, which plays an important role in Alzheimer’s disease. […] In addition, the predictions about these compounds’ brain permeability were performed using ADME module with Discovery Studio 2.1 software package.
SH-SY5Y human neuroblastoma cells were obtained from the American Type Culture Collection (ATCC, Manassas, VA, USA). Cells were cultured in 1:1 DMEM:Ham's F12 containing 10% (v/v) fetal bovine serum (HyClone, Logan, UT, USA), 1% penicillin, and 1% streptomycin at a humidified atmosphere with 5% CO2. The medium was changed every 2 days. […] Antigen-antibody complexes were detected by the ECL Kit.

For the next experiment, the target named is T1, GSK-3β (Homo sapiens, UniProt P49841).
T1 construct: GST (N, cleaved yes); made in house; host or cells: Escherichia coli BL21-Codon Plus (DE3)
As to the kind of experiment: GSK-3β kinase assay (Z'-LYTE Kinase Assay kit Ser/Thr 9 Peptide). The settings on record: 50 nM enzyme, 30 μM ATP, 2 μM substrate peptide; triplicate; mean ± SE; read-out: GSK-3β inhibitory activity IC50 (nM) ± SE. Format: biochemical. On the procedure:
GSK3β belongs to CMGC family. Here, the other family members were used to evaluate the selectivity of GSK3β inhibitors, including PKC-epsilon (AGC family), JAK2 (TK family), Braf (TKL family), DRAK2 (CAMK family) and IKKβ (other family).The recombinant GST-GSK-3βprotein was expressed in Escherichia coli strain BL21-Codon Plus (DE3), purified by GSTrap affinity chromatography, and cleaved by thrombin. The GSK-3β kinase assay was carried out with the Z´-LYTETM Kinase Assay kit Ser/Thr 9 Peptide substrate (Invitrogen, Grand, NY, USA) in 10 μL reaction volume containing 50 nM enzyme, 30 μM ATP and 2 μM substrate peptide. Drak2 Proteins were presented by professor Jiang-ping Wu (Laboratory of Immunology, Research Centre, CHUM, Notre Dame Hospital, Pavilion DeSève). The Drak2 kinase reaction was performed in a final assay volume of 3.4 μL using the ADP-GLO Kinase Assay Kit (Promega, Madison, WI, USA), according the ADP-GLO protocol and read on an EnVision plate reader. The recombinant PKC-epsilon, IKKβ, and JAK2 with N-terminal His-tag were expressed using baculovirus expression system and purified with Ni-Beads. BRAF protein was from Carna Biosciences, Inc. (Kobe Port Island, Japan). And the related kinase reactions were performed in a final assay volume of 10 μL using the related HTRF Assay Kit (Cisbio, Codolet, France). Reactions were according the HTRF protocol and read on an EnVision plate reader. All reactions were carried out in triplicate. […] Data were expressed as mean ± SE.

T1 sequence (P49841 whole entry): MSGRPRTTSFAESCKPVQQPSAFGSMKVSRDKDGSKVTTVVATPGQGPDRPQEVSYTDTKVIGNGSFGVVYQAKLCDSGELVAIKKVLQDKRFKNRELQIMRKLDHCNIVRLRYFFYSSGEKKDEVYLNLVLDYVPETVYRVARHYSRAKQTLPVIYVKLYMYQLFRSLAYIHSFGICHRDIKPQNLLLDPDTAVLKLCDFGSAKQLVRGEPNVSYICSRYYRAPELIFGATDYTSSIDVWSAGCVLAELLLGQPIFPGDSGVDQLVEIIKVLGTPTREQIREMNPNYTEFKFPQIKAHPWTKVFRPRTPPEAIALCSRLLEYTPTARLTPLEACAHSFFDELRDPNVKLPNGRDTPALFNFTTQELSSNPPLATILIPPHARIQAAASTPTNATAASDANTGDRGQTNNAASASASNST

On to `O=C1NC(=O)C(c2cn(CCCN3CCOCC3)c3cc(F)ccc23)=C1c1noc2ccccc12` [7f, 3-(Benzo[d]isoxazol-3-yl)-4-(6-fluoro-1-(3-morpholinopropyl)-1H-indol-3-yl)-1H-pyrrole-2,5-dione], for which the “Effect on Aβ25-35-induced Tau phosphorylation at Ser 396” value in experiment [1] is “obviously reduce”. Also, at GSK-3β, the IC50 was 127 ± 3.2 nM.
